Data on 1 compound can be found in patent publication US9856290B2, “Glycopeptide compositions and uses thereof” (SUSSEX RESEARCH LABORATORIES INC., priority 2013, dated 2018).

For data set [1], the system named is Human Dermal Fibroblasts (KMST-6). The data set can be described thus: Cell morphology (phase contrast images). The class given is cell-based. The settings on record: 5 μM. Here is the method:
KMST-6 cells (Japan Health Sciences Foundation, JCRB0433) were seeded at 7,000 cells/ml in 12-well tissue culture treated plates (Falcon, 353043) in complete media. The complete media consists of the following: MEM/EBSS (Hyclone, SH30024.01), 10% Heat-Inactivated FBS (Gibco, 10082-147), 1% L-Glutamine (Hyclone, SH30031.01), 1% Nucleosides (800 mg/L Adenosine, 850 mg/L Guanidine, 730 mg/L Cytidine, 730 mg/L Uridine and 240 mg/L Thymidine), 1% Penicillin/Streptomycin (HyClone, SV30010), 1% Sodium Pyruvate (HyClone, SH30239.01), 1% Non-Essential Amino Acids (Hyclone, SH30238.01) and 0.04% Gentamicin (Gibco, 15710-064). Cells were grown for 2 days prior to treatments. The media was aspirated and cells were washed with 1×PBS (Fisher, SH30256.01) and treated with 5 μM glycopeptides (GP001-1, GP002-3, GP002-7, GP003-9, GP004-3 and GP004-4), reference (Pal-KTTKS, CPC Scientific, 822197), and control (DMSO, Fisher, BP231-100) in serum-free media supplemented with 50 μg/mL Sodium Ascorbate (Sigma, A4034) and 80 μg/mL β-Aminopropionate Fumarate (Sigma, A3134). The treated cells were incubated at 37° C. and 5% CO2 for 48 and 72 hours. At each time point, images were taken with an Olympus Opti-Tech Scientific Microscope (Lumenera, Infinity 2 camera at 10× magnification) and changes in cell size and morphology were recorded. […]

Another data set relates to fibroblast. The settings on record: under certain conditions; cited from earlier work.
Data set [2] deals with Human Dermal Fibroblasts (KMST-6). The data set can be described thus: Cell Viability MTT Assay. The class given is cell-based. The settings on record: 5 μM, KMST-6, 48 and 72 hours; toxicity defined as viability less than 50% of control. Here is the method: KMST-6 cells (Japan Health Sciences Foundation, JCRB0433) were seeded at 7,000 cells/ml in complete media. The complete media consists of the following: MEM/EBSS (Hyclone, SH30024.01), 10% Heat-Inactivated FBS (Gibco, 10082-147), 1% L-Glutamine (Hyclone, SH30031.01), 1% Nucleosides (800 mg/L Adenosine, 850 mg/L Guanidine, 730 mg/L Cytidine, 730 mg/L Uridine and 240 mg/L Thymidine), 1% Penicillin/Streptomycin (HyClone, SV30010), 1% Sodium Pyruvate (HyClone, SH30239.01), 1% Non-Essential Amino Acids (Hyclone, SH30238.01) and 0.04% Gentamicin (Gibco, 15710-064). Cells were grown for 2 days prior to treatments. […] The absorbance was measured with a microplate reader (Molecular Devices, SpectraMax M2e) at 570 nm. […]
To determine effects on cell viability as a measure of toxicity, 5 μM of the 6 exemplary glycopeptides were applied to Human Dermal Fibroblasts (KMST-6) as previously described. […] The absorbance was measured with a microplate reader (Molecular Devices, SpectraMax M2e) at 570 nm. Three or more independent experiments were performed and statistical significance was determined using One-way ANOVA (p<0.05). […]

The structures appear in SMILES notation. Where a SMILES comes first, the peptide text is derived from it.

In the case of `CCCCCCCCCCCCCCCC(=O)N[C@@H](CCCCN)C(=O)N[C@H](C(=O)N[C@H](C(=O)N[C@@H](CCCCN)C(=O)N[C@@H](CO)C(=O)O)[C@@H](C)O)[C@@H](C)O` [Reference, Pal-KTTKS] (HELM PEPTIDE1{[CCCCCCCCCCCCCCCC(=O)[*:2]].K.T.T.K.S}$$$$V2.0), in data set [1] (KMST-6), the “cell confluence compared to control and glycopeptide treated cells” value is “demonstrated decrease in cell confluence”. For the same compound, in data set [1] (KMST-6, 48 and 72 hours), the “toxicity as observed through phase-contrast morphology” value was “visibly interfered with cell viability”. In the data set on fibroblast, the fibroblast cell viability entry is on record as “decrease fibroblast cell viability”. The “cell viability as a measure of toxicity (MTT assay)” value in data set [2] is given as “significant decrease in cell viability”.
